Results: ChEMBL document CHEMBL1121823, “A novel connector linkage applicable in prodrug design” (J Med Chem, 1981)

How the values were obtained:
Format in all cases: ADME
[1] = Half-life was determined; details: human
[2] = Half-life in aqueous buffer (0.05 M bistris, pH 6.9) in the absence of trypsin was determined at 25 degree C; details: aqueous buffer without trypsin
[3] = Half-life in aqueous buffer (0.05 M bistris, pH 6.9) in the presence of trypsin (2.5 ug/ml) was determined at 25 degree C

Row | half-life [2] | half-life [3] | Structure (SMILES) | half-life [1]
1 |  |  | NC(=O)OCc1ccc(N)cc1 | 1.5 min
2 | 40 h | 11 min | CC(C)(C)OC(=O)NC(CCCCN)C(=O)Nc1ccc(COC(=O)Nc2ccc([N+](=O)[O-])cc2)cc1 (stereo not drawn) | 
